Measurements as given in patent US20220023552A1, “KIT FOR INHALED CHEMOTHERAPY, AND TREATMENT OF LUNG CANCER WITH SAID KIT” (UNIVERSITÉ LIBRE DE BRUXELLES, priority 2018, published 2022).

What was measured:
[1] = tested on: M109-HiFR-LUC2 cells; experiment: ex vivo bioluminescence analysis of tumor localization (resected lungs vs chest cavity); format: in vivo, BALB/c mice; settings: Example 3 additional experiment, day 19 post engraftment
Procedure: Briefly, under anesthesia, 6 to 7-week-old BALB/c mice were grafted with 1.4 million M109-HiFR-LUC2 cells in 20 μL of a 50:50 v/v mix of folate-free RPMI/Matrigel® injected intercostally after incision of the skin and dissection of subcutaneous muscles. The different tissue incisions were stitched with a 3-0 silk (Ethicon®, St-Stevens-Woluwe, Belgium). The mice were closely observed until complete recovery. The therapeutic response of the M109 model to cisplatin was evaluated by in vivo optical imaging (bioluminescence) and survival analysis. Bioluminescence is directly proportional to the number of living M109-HiFR-LUC2 tumor cells. Bioluminescence was performed up to day 19 post tumor cell engraftment using a Photonlmager RT (Biospace Lab, France) using the conventional supplier's protocol. Mice were weighted three times a week and sacrificed if their weight loss exceeded 20% from the beginning of the experiment or 15% from the last measurement or if they were suffocating. In these cases, the mouse death was notified as occurred the day after.
An additional experiment was performed evaluating cisplatin DPI according to example 1 vs cisplatin IV on the same lung cancer mice model. […]

[2] = tested on: M109-HiFR-LUC2 cells; experiment: tumor growth by in vivo bioluminescence in orthotopic lung cancer mice model; design: species or system BALB/c mice; settings: Example 4; p<0.05 for combination, p>0.05 for cisplatin IV
Procedure: The orthotopic intrapulmonary implantation procedure was performed using an adaption of the protocol described previously (Wauthoz et al., Nanomedicine 2015). Briefly, under anesthesia, 6 to 7-week-old BALB/c mice were grafted with 1.4 million M109-HiFR-LUC2 cells in 20 μL of a 50:50 v/v mix of folate-free RPMI/Matrigel® injected intercostally after incision of the skin and dissection of subcutaneous muscles. The different tissue incisions were stitched with a 3-0 silk (Ethicon®, St-Stevens-Woluwe, Belgium). The mice were closely observed until complete recovery. The therapeutic response of the M109 model to cisplatin was evaluated by in vivo optical imaging (bioluminescence) and survival analysis. Bioluminescence is directly proportional to the number of living M109-HiFR-LUC2 tumor cells. […]
The protocol described in example 3 has been reproduced, except that survival rates were also determined (no euthanasia on day 19 and no ex vivo bioluminescence analysis), the treatment started on day 6 according to the scheme table 3 below and that three groups of 4-15 mice were compared: […]
The protocol described in example 3 has been reproduced, except that survival rates were also determined (no euthanasia on day 19 and no ex vivo bioluminescence analysis), the treatment started on day 3 according to the scheme table 5 below and three groups of 8-16 mice were compared: […]

[3] = geometrical particle size distribution (PSD) by laser diffraction; format: physicochemical; settings: mean ± SD, n = 3
Procedure: The geometrical PSD of bulk cisplatin, cisplatin microparticles from the size-reduction process, and cisplatin dry powder formulation, was measured as suspended and individualized particles. This was done using a Mastersizer 3000 laser diffractometer (Malvern Instruments Ltd., Worcestershire, UK) connected to a Hydro MV dispenser equipped with a 40 W ultrasonic probe (Malvern Instruments Ltd.). Measurements of bulk cisplatin and aliquots of cisplatin microparticles from the size-reduction process were performed in cisplatin-saturated isopropanol. […] The geometrical PSD of bulk cisplatin, cisplatin microparticles from the size-reduction process, and cisplatin dry powder formulation, was measured as suspended and individualized particles as described in the Example 1 and are presented in table 2.

[4] = Table 1, materials of Example 1
[5] = Table 2, materials of Example 2

| Compound | tumor growth in the chest, cisplatin IV compared with cisplatin DPI (FIG. 3) ([1]; chest cavity = loco-regional metastases) | tumor growth in the lungs, cisplatin IV compared with cisplatin DPI (FIG. 3) ([1]; resected lungs = primary lung tumors) | significance of the decrease in tumor growth versus untreated control (1-way ANOVA) [2] | D50 (volume median diameter) [3, 4] [μm] | D[4,3] (volume mean diameter) [3, 4] [μm] | D50 (volume median diameter) [3, 5] [μm] | D[4,3] (volume mean diameter) [3, 5] [μm] |
| --- | --- | --- | --- | --- | --- | --- | --- |
| N.N.[Cl][Pt][Cl] [cisplatin IV, cisplatin] | decrease of tumor growth in the chest | similar | not | – | – | – | – |
| N.N.[Cl][Pt][Cl] [Raw cisplatin, cisplatin] | – | – | – | 16.5 ± 3.6 | 18.9 ± 4.3 | 6.3 ± 0.1 | 7.1 ± 0.2 |
